The values below come from patent publication US5376371A, “Compositions for treating fat deposits in humans” (Indena S.p.A., priority 1989, dated 1994).

Assay [1] concerns phosphodiesterase. Particulars: stated as known; cited from earlier work.
The target of assay [2] is phosphodiesterase. The assay is described as follows: Phosphodiesterase inhibition, cyclic GMP substrate. The following applies: 1 μM substrate; read-out: I50 Cyclic GMP. The assay is classed as biochemical. The procedure:
(§1) The determination of the phosphodiesterase activity was carried out according to the method of Beretz et al. (Experientia, 34,1054,1977). The method consists in measuring (3H) products resulting from incubation of (3H)-c-AMP with the phosphodiesterase preparation and with an excess of […]. An anion exchange resin was used in a batch process to remove the residual substrate. The inibition of PDE by flavonoids was studied in experiments in which the concentration of c-AMP was held constant at 1 μM.
(§2) Assays were performed with 1 μM substrate, I50 was calculated as described above.

Assay [3] has as its target phosphodiesterase. In words: Phosphodiesterase inhibition, cyclic AMP substrate. It counts as biochemical. Particulars: 1 μM substrate; read-out: I50 Cyclic AMP. The procedure:
as §1, §2

In the case of `O=c1cc(-c2ccc(O)c(-c3c(O)cc(O)c4c(=O)cc(-c5ccc(O)cc5)oc34)c2)oc2cc(O)cc(O)c12` [Amentoflavone, amentoflavone], the inhibition of phosphodiesterase entry with phosphodiesterase [1] is recorded as “powerful inhibitor of phosphodiesterase”. Moreover, the results for the IC50 on phosphodiesterase [2] and on phosphodiesterase [3] were 0.58 µM and 0.65 µM, respectively.

Take `O=C(O)c1cc(=O)c2c(OCC(O)COc3cccc4oc(C(=O)O)cc(=O)c34)cccc2o1` [Cromoglycate Na, reference compound]: the IC50 on phosphodiesterase [2] came to 235 µM; at phosphodiesterase [3], 2000 µM.

Consider `COc1ccc(Cc2nccc3cc(OC)c(OC)cc23)cc1OC` [Papaverine, reference compound], for which the IC50 at phosphodiesterase [2] is 12.4 µM; at phosphodiesterase [3] it was 5 µM.

Consider ginkgonetine, for which the IC50 at phosphodiesterase [2] came out at 0.49 µM; on phosphodiesterase [3], 0.88 µM.
